From ChEMBL document CHEMBL1201862, “PubChem BioAssay data set” (2004)
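The compound was tested at five concentrations on cells cultured in 96-well plates, with a 48-hour exposure period. GI50 marks 50% less growth.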 Activity calls are given as the source filed them. Rule as the data show it: active = GI50 up to about 1.1 µM and inactive = higher.

Tests used:
Assay in all cases: NCI tumour cell line growth inhibition, 48 h
A549 = system: A549
HL-60 = system: HL-60
MDA-MB-435 = system: MDA-MB-435
MDA-N = system: MDA-N
Malme-3M = system: Malme-3M
NCI-H226 = system: NCI-H226
OVCAR-3 = system: OVCAR-3
OVCAR-5 = system: OVCAR-5
PC-3 = system: PC-3
RPMI-8226 = system: RPMI-8226
SF-539 = system: SF-539
SK-MEL-28 = system: SK-MEL-28
SK-OV-3 = system: SK-OV-3
SNB-75 = system: SNB-75
SR = system: SR
SW-620 = system: SW-620
U-251 = system: U-251
UACC-257 = system: UACC-257
UACC-62 = system: UACC-62
CAKI-1 = system: CAKI-1

Measured: GI50

Oc1ccc(Cc2cc(Cc3ccc(O)cc3)cc(Cc3ccc(O)cc3)c2)cc1
inactive: A549 > 50 µM | HL-60 > 50 µM | MDA-MB-435 > 50 µM | MDA-N > 50 µM | Malme-3M > 50 µM | NCI-H226 > 50 µM | OVCAR-3 > 50 µM | OVCAR-5 > 50 µM | PC-3 > 50 µM | RPMI-8226 > 50 µM | SF-539 > 50 µM | SK-MEL-28 > 50 µM | SK-OV-3 > 50 µM | SNB-75 > 50 µM | SR > 50 µM | SW-620 > 50 µM | U-251 > 50 µM | UACC-257 > 50 µM | UACC-62 > 50 µM

Cn1c(=O)oc2nc(-c3ccccc3)cc(C(F)(F)F)c21
inactive: A549 > 100 µM | CAKI-1 > 100 µM | MDA-MB-435 15.9 µM | MDA-N 3.23 µM | NCI-H226 > 100 µM | OVCAR-3 32.8 µM | OVCAR-5 > 100 µM | PC-3 > 100 µM | RPMI-8226 30.5 µM | SF-539 5.3 µM | SK-MEL-28 > 100 µM | SK-OV-3 > 100 µM | SNB-75 > 100 µM | SR 44.6 µM | SW-620 > 100 µM | U-251 95.3 µM | UACC-257 > 100 µM | UACC-62 > 100 µM

NCCCC(N)C(=O)O (stereo not given)
inactive: A549 > 100 µM | CAKI-1 > 100 µM | HL-60 > 100 µM | MDA-MB-435 > 100 µM | MDA-N > 100 µM | Malme-3M > 100 µM | NCI-H226 77.8 µM | OVCAR-3 > 100 µM | OVCAR-5 > 100 µM | PC-3 > 100 µM | RPMI-8226 > 100 µM | SK-MEL-28 > 100 µM | SK-OV-3 > 100 µM | SNB-75 > 100 µM | SR > 100 µM | SW-620 > 100 µM | U-251 > 100 µM | UACC-257 > 100 µM | UACC-62 > 100 µM

O=C(NN=C1NCCN1)c1ccco1
inactive: A549 > 100 µM | HL-60 > 100 µM | MDA-MB-435 > 100 µM | MDA-N > 100 µM | Malme-3M > 100 µM | NCI-H226 62.4 µM | OVCAR-3 > 100 µM | OVCAR-5 > 100 µM | PC-3 > 100 µM | RPMI-8226 > 100 µM | SF-539 > 100 µM | SK-MEL-28 > 100 µM | SK-OV-3 > 100 µM | SNB-75 > 100 µM | SR > 100 µM | SW-620 > 100 µM | U-251 > 100 µM | UACC-257 > 100 µM | UACC-62 > 100 µM

COc1cc(COC(=O)N(CC(=O)O)c2ccccc2)c([N+](=O)[O-])cc1OC
inactive: A549 > 100 µM | HL-60 > 100 µM | MDA-MB-435 > 100 µM | MDA-N > 100 µM | Malme-3M > 100 µM | NCI-H226 > 100 µM | OVCAR-3 > 100 µM | OVCAR-5 > 100 µM | PC-3 > 100 µM | RPMI-8226 > 100 µM | SF-539 > 100 µM | SK-MEL-28 > 100 µM | SK-OV-3 > 100 µM | SNB-75 > 100 µM | SR > 100 µM | SW-620 > 100 µM | U-251 > 100 µM | UACC-257 > 100 µM | UACC-62 > 100 µM

CC(=O)OCC1OC(n2c(-c3ccccc3)c(C(C)=O)c(-c3cccc4ccccc34)c(C#N)c2=S)C(OC(C)=O)C(OC(C)=O)C1OC(C)=O (stereo not given)
inactive: A549 > 100 µM | HL-60 > 100 µM | MDA-MB-435 > 100 µM | MDA-N > 100 µM | Malme-3M > 100 µM | NCI-H226 > 100 µM | OVCAR-3 > 100 µM | OVCAR-5 > 100 µM | PC-3 62.2 µM | SF-539 > 100 µM | SK-MEL-28 > 100 µM | SK-OV-3 > 100 µM | SR > 100 µM | SW-620 > 100 µM | U-251 > 100 µM | UACC-257 > 100 µM

Cc1cc(N(CCC#N)CCC#N)ccc1C(/N=N\c1ccc([N+](=O)[O-])cc1)=N\NC(=O)c1cc(Cl)ccc1O
inactive: A549 38.6 µM | CAKI-1 40.7 µM | MDA-MB-435 64.9 µM | MDA-N 51.3 µM | Malme-3M 28.1 µM | NCI-H226 25.5 µM | OVCAR-3 14.2 µM | OVCAR-5 > 100 µM | PC-3 23 µM | RPMI-8226 > 100 µM | SF-539 40.4 µM | SK-OV-3 50.7 µM | SNB-75 > 100 µM | SR 24.3 µM | U-251 46.1 µM | UACC-257 34 µM | UACC-62 22.9 µM

O=C1NC(=O)/C(=C/c2ccc(S(=O)(=O)N/N=C/c3ccc(Cl)cc3)cc2)N1
inactive: A549 > 100 µM | CAKI-1 > 100 µM | HL-60 72.9 µM | MDA-MB-435 > 100 µM | MDA-N > 100 µM | Malme-3M > 100 µM | NCI-H226 > 100 µM | OVCAR-3 65.9 µM | OVCAR-5 > 100 µM | PC-3 > 100 µM | RPMI-8226 > 100 µM | SK-MEL-28 > 100 µM | SK-OV-3 > 100 µM | SNB-75 > 100 µM | SR 61.2 µM | SW-620 > 100 µM | U-251 > 100 µM | UACC-257 > 100 µM | UACC-62 > 100 µM

CN1CC=C(C#CC(C)(C)O)CC1
inactive: A549 > 37.5 µM | CAKI-1 > 37.5 µM | HL-60 > 37.5 µM | MDA-MB-435 > 37.5 µM | MDA-N > 37.5 µM | Malme-3M 30.8 µM | NCI-H226 > 37.5 µM | OVCAR-3 > 37.5 µM | OVCAR-5 > 37.5 µM | PC-3 > 37.5 µM | RPMI-8226 > 37.5 µM | SK-MEL-28 > 37.5 µM | SK-OV-3 > 37.5 µM | SNB-75 > 37.5 µM | SR > 37.5 µM | SW-620 > 37.5 µM | U-251 > 37.5 µM | UACC-257 > 37.5 µM | UACC-62 > 37.5 µM

NC(Cc1ccc(OCc2ccccc2)cn1)C(=O)OCc1ccccc1 (stereo not given)
inactive: A549 > 100 µM | CAKI-1 > 100 µM | HL-60 > 100 µM | MDA-MB-435 > 100 µM | MDA-N > 100 µM | Malme-3M > 100 µM | NCI-H226 > 100 µM | OVCAR-3 > 100 µM | OVCAR-5 > 100 µM | PC-3 > 100 µM | RPMI-8226 > 100 µM | SF-539 > 100 µM | SK-MEL-28 > 100 µM | SR > 100 µM | SW-620 > 100 µM | U-251 > 100 µM | UACC-257 > 100 µM

Cc1c(O)c(OC2OC(CO)C(O)C(O)C2O)cc2c1CC[C@@H]1C2(C)C(=O)C[C@]2(C)[C@@H]([C@@](C)(O)C(=O)CCC(C)(C)O)[C@H](O)C[C@@]12C (stereo not given in full)
inactive: A549 > 100 µM | CAKI-1 > 100 µM | MDA-MB-435 > 100 µM | MDA-N > 100 µM | Malme-3M > 100 µM | NCI-H226 > 100 µM | OVCAR-3 > 100 µM | OVCAR-5 > 100 µM | PC-3 > 100 µM | SF-539 > 100 µM | SK-MEL-28 > 100 µM | SK-OV-3 > 100 µM | SNB-75 > 100 µM | SR > 100 µM | SW-620 > 100 µM | U-251 > 100 µM | UACC-257 > 100 µM | UACC-62 > 100 µM
